Experimental data reported in patent US20240246942A1, “KINASE INHIBITORS FOR THE TREATMENT OF NEURODEGENERATIVE DISEASES” (priority 2020, published 2024).
Like-named read-outs stand apart in the source and are kept apart here.

Experiments:
Assay in all cases: biochemical
[1] = target: T1, panel of 374 wild-type kinases (Homo sapiens, UniProt Q04771); settings: read-out: % Enzyme Activity (relative to DMSO controls), ALK2/ACVR1
T1 construct: purchased Reaction Biology Corporation
T1 sequence (Q04771 21-509): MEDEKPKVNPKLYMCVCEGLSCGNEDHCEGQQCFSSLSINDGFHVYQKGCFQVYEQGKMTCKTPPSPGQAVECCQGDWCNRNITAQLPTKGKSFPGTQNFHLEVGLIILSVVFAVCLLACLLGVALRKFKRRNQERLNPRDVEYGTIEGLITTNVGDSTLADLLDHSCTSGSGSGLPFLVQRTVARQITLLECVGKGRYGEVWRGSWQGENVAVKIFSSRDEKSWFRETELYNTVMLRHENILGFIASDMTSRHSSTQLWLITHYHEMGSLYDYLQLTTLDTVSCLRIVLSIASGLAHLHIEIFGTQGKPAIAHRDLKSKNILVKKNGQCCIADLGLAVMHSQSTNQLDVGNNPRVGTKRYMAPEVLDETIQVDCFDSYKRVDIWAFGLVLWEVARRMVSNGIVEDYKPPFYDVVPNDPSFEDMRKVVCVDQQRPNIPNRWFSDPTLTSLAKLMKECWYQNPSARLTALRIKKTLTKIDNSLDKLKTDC

[2] = target: T2, panel of 374 wild-type kinases (Homo sapiens, UniProt P24941)
T2 construct: purchased Reaction Biology Corporation

[3] = target: T3, panel of 374 wild-type kinases (Homo sapiens, UniProt P54760); settings: read-out: % Enzyme Activity (relative to DMSO controls), EPHB4
T3 construct: purchased Reaction Biology Corporation
T3 sequence (P54760 16-987): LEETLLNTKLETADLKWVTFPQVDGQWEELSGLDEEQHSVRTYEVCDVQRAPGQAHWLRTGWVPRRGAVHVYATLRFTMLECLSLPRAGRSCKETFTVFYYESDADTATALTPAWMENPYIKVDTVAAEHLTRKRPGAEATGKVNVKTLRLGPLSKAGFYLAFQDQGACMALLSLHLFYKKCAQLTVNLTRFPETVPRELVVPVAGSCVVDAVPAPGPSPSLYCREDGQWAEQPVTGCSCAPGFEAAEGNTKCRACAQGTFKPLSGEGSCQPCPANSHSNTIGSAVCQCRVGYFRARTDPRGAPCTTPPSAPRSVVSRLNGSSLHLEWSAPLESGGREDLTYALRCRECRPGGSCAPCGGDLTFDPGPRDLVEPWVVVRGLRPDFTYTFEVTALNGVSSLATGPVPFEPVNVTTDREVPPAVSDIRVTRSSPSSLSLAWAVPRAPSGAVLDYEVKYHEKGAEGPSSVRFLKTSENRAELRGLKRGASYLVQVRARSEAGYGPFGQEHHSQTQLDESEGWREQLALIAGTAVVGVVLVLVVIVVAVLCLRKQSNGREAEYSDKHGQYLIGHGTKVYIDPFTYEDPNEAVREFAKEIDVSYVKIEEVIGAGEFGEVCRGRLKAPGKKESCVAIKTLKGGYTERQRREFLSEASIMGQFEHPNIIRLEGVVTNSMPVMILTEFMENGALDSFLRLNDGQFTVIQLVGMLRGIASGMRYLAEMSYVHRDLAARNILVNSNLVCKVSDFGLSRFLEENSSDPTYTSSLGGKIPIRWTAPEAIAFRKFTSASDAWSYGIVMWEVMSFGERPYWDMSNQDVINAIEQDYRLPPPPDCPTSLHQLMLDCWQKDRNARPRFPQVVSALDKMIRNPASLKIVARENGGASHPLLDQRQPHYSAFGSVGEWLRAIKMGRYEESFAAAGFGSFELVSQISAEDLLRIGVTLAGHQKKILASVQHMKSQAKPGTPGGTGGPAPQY

[4] = target: T4, panel of 374 wild-type kinases (Homo sapiens, UniProt P17948); settings: read-out: % Enzyme Activity (relative to DMSO controls), FLT1/VEGFR1
T4 construct: purchased Reaction Biology Corporation

[5] = read-out: % Enzyme Activity (relative to DMSO controls), CDK2/Cyclin A1
[6] = read-out: % Enzyme Activity (relative to DMSO controls), CDK2/cyclin A
[7] = read-out: % Enzyme Activity (relative to DMSO controls), CDK2/cyclin E2
[8] = read-out: % Enzyme Activity (relative to DMSO controls), CDK2/cyclin E
[9] = read-out: % Enzyme Activity (relative to DMSO controls), CDK2/cyclin O

T4 sequence (P17948 27-1338): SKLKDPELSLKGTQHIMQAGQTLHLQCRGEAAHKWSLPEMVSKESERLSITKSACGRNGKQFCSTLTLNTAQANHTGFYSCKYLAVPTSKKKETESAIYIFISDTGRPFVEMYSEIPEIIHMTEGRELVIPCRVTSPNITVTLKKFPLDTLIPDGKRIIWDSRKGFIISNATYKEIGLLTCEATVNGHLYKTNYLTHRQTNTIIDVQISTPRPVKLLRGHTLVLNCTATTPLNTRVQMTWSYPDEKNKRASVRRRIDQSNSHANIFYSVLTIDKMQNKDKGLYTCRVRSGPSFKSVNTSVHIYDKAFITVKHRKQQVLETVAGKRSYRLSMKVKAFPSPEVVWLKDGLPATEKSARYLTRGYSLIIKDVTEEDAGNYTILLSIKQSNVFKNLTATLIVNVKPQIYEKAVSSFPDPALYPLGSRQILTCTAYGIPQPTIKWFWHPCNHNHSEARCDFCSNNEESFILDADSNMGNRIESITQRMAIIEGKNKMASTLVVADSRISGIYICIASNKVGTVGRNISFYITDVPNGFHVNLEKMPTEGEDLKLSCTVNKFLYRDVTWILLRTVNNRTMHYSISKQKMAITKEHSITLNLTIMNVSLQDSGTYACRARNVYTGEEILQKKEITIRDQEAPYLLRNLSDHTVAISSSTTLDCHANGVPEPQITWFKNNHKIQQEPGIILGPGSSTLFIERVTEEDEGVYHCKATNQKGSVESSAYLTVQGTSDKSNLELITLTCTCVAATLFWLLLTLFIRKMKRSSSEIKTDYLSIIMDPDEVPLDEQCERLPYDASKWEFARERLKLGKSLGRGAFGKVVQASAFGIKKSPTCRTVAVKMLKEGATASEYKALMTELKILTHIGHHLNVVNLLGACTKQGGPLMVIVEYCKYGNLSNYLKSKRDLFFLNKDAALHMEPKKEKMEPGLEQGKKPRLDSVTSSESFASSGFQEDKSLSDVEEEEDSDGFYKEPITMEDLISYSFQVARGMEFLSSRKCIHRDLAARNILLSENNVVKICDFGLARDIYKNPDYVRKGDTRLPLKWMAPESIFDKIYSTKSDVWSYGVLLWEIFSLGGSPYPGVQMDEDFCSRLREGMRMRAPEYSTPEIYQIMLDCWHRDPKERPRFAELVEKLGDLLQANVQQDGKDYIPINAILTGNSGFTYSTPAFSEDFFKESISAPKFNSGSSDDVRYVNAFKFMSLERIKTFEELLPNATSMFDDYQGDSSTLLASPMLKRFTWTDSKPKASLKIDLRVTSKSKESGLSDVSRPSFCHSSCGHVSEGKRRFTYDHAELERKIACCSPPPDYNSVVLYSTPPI

Row | Structure (SMILES) | remaining activity at 5 µM [1] [%] | remaining activity at 5 µM [2, 5] [%] | remaining activity at 5 µM [2, 6] [%] | remaining activity at 5 µM [2, 7] [%] | remaining activity at 5 µM [2, 8] [%] | remaining activity at 5 µM [2, 9] [%] | remaining activity at 5 µM [3] [%] | remaining activity at 5 µM [4] [%] | remaining activity at 10 µM ([1]; 10 uM) [%] | remaining activity at 10 µM [2, 5] [%] | remaining activity at 10 µM [2, 6] [%] | remaining activity at 10 µM [2, 7] [%] | remaining activity at 10 µM [2, 8] [%] | remaining activity at 10 µM [2, 9] [%] | remaining activity at 10 µM ([3]; 10 uM) [%] | remaining activity at 10 µM ([4]; 10 uM) [%]
1 | O=C(Nc1cnn(-c2csc(C(=O)NC3COC3)c2)c1)Nc1ccccc1Cl [Compound 17, 4-(4-(3-(2-chlorophenyl)ureido)-1H-pyrazol-1-yl)-N-(oxetan-3-yl)thiophene-2-carboxamide] | 105 | 106 | 93.6 | 107 | 99 | 93.2 | 97.8 | 101 | – | – | – | – | – | – | – | –
2 | O=C(Nc1cnn(-c2csc(C(=O)NC3COC3)c2)c1)Nc1c(F)cccc1Cl [Compound 25, 4-(4-(3-(2-chloro-6-fluorophenyl)ureido)-1H-pyrazol-1-yl)-N-(oxetan-3-yl)thiophene-2-carboxamide] | 95.7 | 94.2 | 93.8 | 98.9 | 94.6 | 94.1 | 98.1 | 86.1 | – | – | – | – | – | – | – | –
3 | Cc1sc(C(=O)NC2COC2)cc1-n1cc(NC(=O)Nc2c(F)cccc2Cl)cn1 [Compound 27, 4-(4-(3-(2-chloro-6-fluorophenyl)ureido)-1H-pyrazol-1-yl)-5-methyl-N-(oxetan-3-yl)thiophene-2-carboxamide] | – | – | – | – | – | – | – | – | 108 | 111 | 98.3 | 90.8 | 106 | 105 | 93.7 | 84.1
